Residues, ends and D or L forms follow the SMILES beside them. *: point of attachment. 5FAM = O=C1OC2(c3ccc(O)cc3Oc3cc(O)ccc32)c2ccc(C(=O)*)cc21; X1 = O=C(O)C(C(=O)O)*
Test system: WT Jurkat T cells
Assay: Peptide cellular uptake by confocal fluorescence microscopy, Jurkat
Format: cell-based
Conditions: confocal fluorescence microscopy via FAM group, live cells, 50 or 100 μM peptide, 2 or 5 h, 37 °C; three independent experiments
Procedure: Multiply charged ions were selected for higher collisional dissociation (HCD) using a normalized collision energy (NCE) of 28%, fragmentation targeting for the 12 most abundant precursor ions. Fragment ions were measured with a resolution of 35,000 with a scan range of 200-2,000 m/z and an AGC target of 1E5. A dynamic exclusion time of 45 s with a maximum ion time of 120 ms and an isolation window of 3 m/z was set. Mass spectrometric data evaluation was performed using MaxQuant 1.6.5.0,[5] searching against a homo sapiens UniProt sequence database (2021/02; 218,230 entries including isoforms) supplemented with the protein sequences of the respective peptide used for the experiment. […] The protein list was analysed with Perseus v2.0.11.[6] […] The data was further analysed with the R language package and identified proteins compared with the CRAPome database (H. sapiens single step epitope tag AP-MS background contaminant list) to mitigate the influence of background contaminants (Table S2).[7] […] The significance thresholds were set to alpha 0.01 and a calculated log2 protein ratio of 4. […]
6. Peptide cellular uptake by fluorescence microscopy
The cell permeability of FAM-labelled peptides in WT Jurkat T cells (peptide 26 and peptide 28) and WT HeLa cells (peptide 28) was visualised by fluorescence microscopy. […]

cellular uptake in Jurkat cells: no cell uptake
SMILES: CC[C@H](C)[C@H](NC(=O)[C@@H](NC(=O)[C@H](C)NC(=O)[C@H](Cc1ccc(OC(C(=O)O)C(=O)O)cc1)NC(=O)[C@H](CCC(=O)O)NC(=O)[C@@H](NC(=O)[C@H](CCC(N)=O)NC(=O)c1ccc2c(c1)C(=O)OC21c2ccc(O)cc2Oc2cc(O)ccc21)[C@@H](C)O)[C@@H](C)O)C(=O)N[C@@H](CCCCN)C(=O)N[C@@H](Cc1c[nH]cn1)C(=O)N1CCC[C@H]1C(N)=O [peptide 26] (5FAM-QTEY(X1)ATIKHP-NH2)

From article PMC12118337, “Development of a Peptide Inhibitor Targeting the C‐SH2 Domain of the SHP2 Phosphatase” (Chembiochem, 2025)
